Reference: paper PMC12267067, “Targeting GRPR for sex hormone-dependent cancer after loss of E-cadherin” (Nature, 2025)
No end group written: not given here.

Experiments:
[1] = test system: mouse melanoma cells (1057, 1014, 1062); experiment: Anoikis assay, mouse melanoma cells; assay type: cell-based; conditions: 48 h
Experimental: Six-well plates were coated with poly-HEMA to prevent cell attachment to the well surface. Cells were seeded in low-serum medium containing 10 nM GRP and/or 1 µM RC. Then, 48 hours after cell seeding, cells were collected and washed with ice-cold PBS twice and resuspended in annexin V binding buffer (556454, BD Biosciences) and incubated at room temperature in the dark with 7-amino-actinomycin D (7-AAD, 559925, BD Biosciences) and annexin-V for 15 min. Annexin V was coupled to FITC (556420, BD Biosciences) for the 1057 and MDA-MB-435S cell lines and to PE (556421, BD Biosciences) for the other cell lines. Cells were sorted using a FACS LSRFortessa (BD Biosciences) to determine the percentage of annexin V- and/or 7-AAD-positive cells using a 488 nm laser for annexin V-FITC and annexin V-PE and a 675 nm laser for7-AAD. All quantification was performed using Flow-Jo.

[2] = test system: mouse melanoma cell lines (1057, 1064, 1181, 1039, 1456, 1014); experiment: Matrigel invasion assay, mouse melanoma cells; assay type: cell-based; conditions: 24 h
Experimental: (§1) Matrigel invasion assays were done in transwell plates with 8.0-µm pores (353097, Falcon) coated with 100 µl of 200 µg ml^−1 Matrigel. Depending on the experiments, cells were seeded directly or 24 h after transfection in low-serum medium (0.5% FCS for murine cells and 1% for human cell lines) with 10 nM GRP, 1 µM RC-3095, and/or 1 µM IC 182,780, or in 10% FCS. Then, 24 hours after stimulation, inserts were washed with PBS and non-invading cells were removed. Cells in the inserts were fixed in methanol at −20 °C overnight. The inserts were rinsed and the membrane carefully removed using a sharp scalpel. The membrane was mounted in prolong glass DAPI (1.5 µg ml^−1). Assays were performed in triplicate and automatic counting of invading cells was done using an Image/Fiji macro (10.5281/zenodo.14509394). Sequences of siRNAs are given in Supplementary Table 11.

[3] = test system: human melanoma cell lines (MDA-MB-435S, Dauv-1, 501mel-GRPR); experiment: Matrigel invasion assay, human melanoma cells; assay type: cell-based; conditions: 10 nM GRP and/or 1 µM RC-3095, 24 h, 1% FCS
Experimental: as §1

GRPR, Gαq/11 activation = experiment: IP1 detection (HTRF IP-one Gq kit); assay type: cell-based, mouse; conditions: 10 nM GRP, 30 min, 37 °C
Experimental: IP1 levels were quantified using the HTRF IP-one Gq detection kit (62IPAPEB, Revvity) following the manufacturer’s protocol. We treated 4,000 cells for 30 min at 37 °C in StimB buffer with 10 nM GRP, 1 µM RC-3095, 1 µM ICI-182,780 or DMSO. FRET signals (620 nm and 665 nm, excitation at 385 nm) were measured using a Clariostar plate reader (BMG Labtech).

[4] = test system: Yap1 in Grpr+ mouse melanoma cells (1057); experiment: YAP1 nuclear localization (immunofluorescence); assay type: cell-based; conditions: 1057 cells, 1 h, 10 nM GRP and/or 1 µM RC
Experimental: Cells were seeded on coverslips and cultivated until 100% confluence was achieved. After 24 h of starvation in 0.5% FCS for murine melanoma cell lines and 1% FCS for human melanoma, the medium was complemented with 10 nM GRP and/or 1 µM RC for 1 h. Cells were fixed with 4% PFA for 15 min and blocked with 5% normal goat serum and 0.3% Triton X-100 in PBS. Cells were incubated overnight at 4 °C with anti-YAP D8H1X antibody (14074, cell Signaling, 1/100 dilution) in 1% BSA and 0.3% Triton X-100 followed by incubation for 1.5 h at room temperature with goat anti-rabbit Alexa fluor 594 (A-11012, Invitrogen, 1/500 dilution). Coverslips were mounted with Prolong Gold containing 1.5 µg ml^−1 DAPI (P36934, Invitrogen). Images were acquired using an inverted SP8 Leica confocal microscope (Leica Microsystem). YAP1 localization was evaluated using ImageJ Software.

[5] = test system: serine/threonine kinases in 1057 cells; experiment: Kinase assay (PamGene STK PamChip); assay type: cell-based, mouse; conditions: 10 nM GRP, 15 min
Experimental: Serine/threonine and tyrosine kinase activity were determined using STK PamChips (87102 PamGene International). All assays were done according to the manufacturer’s protocol. In brief, cells were seeded to 70% confluence and starved overnight the day after. Then, the medium was replaced by medium containing vehicle (0.1% DMSO) or 10 nM GRP and/or 1 µM RC and the cells incubated for 15 min. Cells were rinsed twice in PBS and then lysed in M-Per buffer (78503, ThermoFisher Scientific) containing Halt Phosphatase Inhibitor (78428, ThermoFisher Scientific) and Halt Protease Inhibitor (78437, ThermoFisher Scientific), both diluted 1:100. The lysates were immediately snap-frozen. Kinase activity was determined using Pamstation PS12 and 1 µg protein for the STK chips, according to the manufacturer’s protocol. The data were analysed using BioNavigator software (PamGene International), batch corrected using ComBat[71] and normalized using VSN[72]. Kinase activity was assessed using the 2018 version of the UKA tool using basic parameters (Scan rank from 4 to 12, 500 permutations, 90% homology, equivalent weight for each database, minimal prediction score of 300). The UKA tool infers the active kinase from the differentially phosphorylated peptides using databases and predicted interactions (PhosphoNet database).

Substance: GRP: GRPR's natural agonist, endogenous ligand of GRPR (4011670 bachem) (VPLPAGGGTVLTKMYPRGNHWAVGHLM; not fully specified; ends and bridges not checked; UniProt P07492 24-50, looked up)
- anoikis resistance (apoptotic cells without matrix attachment), GRPR+ mouse cells ([1]; 1057, 10 nM GRP and/or 1 µM RC, poly-HEMA, low serum, annexin V/7-AAD): promoted
- anoikis resistance, Grpr-negative mouse cells ([1]; male ∆Ecad (1062) and female Ecad (1014) cells, 10 nM GRP): did not promote anoikis resistance
- invasion (number of invading cells), GRPR-positive mouse lines ([2]; 1057 (also 1064, GRPR-transduced 1014 and 1181 for RC-3095), 10 nM GRP, 1 µM RC-3095 and/or 1 µM ICI, Matrigel 200 µg ml−1, 0.5% FCS): promoted invasion
- invasion (number of invading cells), Grpr-negative mouse lines ([2]; 1181 male Ecad, 1039 female Ecad, 1456 male ΔEcad, 10 nM GRP and/or 1 µM ICI): but not in Ecad-positive (1181 male and 1039 female) or Ecad-negative male (1456) cells
- invasion (number of invading cells), GRPR-positive human lines [3]: promoted
- IP1 production, GRPR-negative cells (GRPR, Gαq/11 activation): not GRPR-negative cells
- IP1 production, GRPR-positive cells (GRPR, Gαq/11 activation; 4,000 cells, StimB buffer, 1 µM RC-3095, 1 µM ICI-182,780 (pre-treatment)): triggered IP1 production
- YAP1 nuclear localization [4]: increased
- kinases activated following GRPR activation [5]: primarily triggered protein kinase C (PKC) and, to a lesser extent, PKAα and PRKX
